# According to patent US9637529B2, “Medicament for atrophy treatment or increasing cell growth” (SIMU TRADE CONSULTING GMBH & CO. LEASING KG, priority 2012, dated 2017):
# “Also recorded” adds a separate entry of the source.
# Columns and labels:
# zebrafish [1] = assay: Zebrafish blood cell concentration; type: in vivo
# Method: FIG. 14: Changes in blood cell concentrations in zebrafish incubated in different doses of SERF2. Shown are mean values (blood cells/nl) and SEM. Asterisks indicate significant differences to control animals.
# FIG. 17: Detection of blood cells (green arrows) in 7 dpf zebrafish (top image=control, lower image=SERF2-treated). To determine blood cell concentration the number of detected cells were divided by vessel volume.
# (§1) SERF2 was administered by a) injection of the native protein into the yolk sac of 3 day post fertilization (dpf) animals and freshly fertilized eggs (2-8 cell stage) in various protein concentrations or chronic incubation with the native protein to supply it via diffusion. For in deep analysis of angiogenic effects flk-1 transgenic animals with gfp (green fluorescent protein) labelled endothelium were used. For all other experiments wildtype (wdt) animals were used.
# A cast of the vascular bed was obtained by accumulation of the shifting vectors of moving erythrocytes from a number of subsequent difference pictures, as described previously (by Schwerte et al., supra). In parallel to this flk-1 transgenic animals, which show green fluorescing endothelium, were imaged.
# [2] = tested on: chorionallantoic membrane (CAM); assay: Hen's Egg Test - Chorionallantoic Membrane (HET-CAM) angiogenesis assay; type: in vivo, chicken; conditions: SERF2 3 μg/CAM, VEGF-A 0.5 μg/CAM; treatment on embryonic day 6 and 7; microscopic evaluation, manual count
# Method: FIG. 12: Proangiogenic effect of SERF2 in CAM assays. To evaluate the pro-angiogenic properties of SERF2, 3 μg of A: PBS and C: SERF2 was applied per CAM. B: VEGF-A (0.5 μg/CAM) was used as positive control, PBS served as a negative control. […] Treatment was performed on embryonic day 6 and 7. Angiogenic responses were evaluated microscopically. Pictures shown were taken for documentation on day 6.
# Fertilized specific-pathogen free eggs (White Leghorn) were obtained from BAXTER Biosciences (Vienna, Austria) on embryonic day 5 (E5). Eggs were disinfected on the surface using a towel soaked with Microzid (Schlilke, Austria). A tiny hole was drilled and 3 ml albumen were removed using a syringe equipped with a 18 G needle. Subsequently, the hole was covered with paraffin. To open the eggs, another hole was drilled on top. The egg shell was removed in this area using a pair of tweezers. […] Angiogenic potential of tested peptides was evaluated microscopically at the end of the experiment.
# The HET-CAM assay enables the assessment of the angiogenic potential of substrates or cells. A suitable VEGF concentration was determined, which can be used as positive control. […] Angiogenic response was determined on Ell by light microscopy.
# To evaluate the pro-angiogenic properties of SERF2, the protein was subjected to Het-CAM assay. […] Angiogenic responses were evaluated microscopically on E7 as well as on E8. […]
# 711-3 cells = assay: H2O2-induced apoptosis, caspase-3 ELISA, 711-3; type: cell-based, human; conditions: serum-free medium with or without H2O2, SERF2 5 μg/ml, 9.5 hours
# Method: 711-3 cells were incubated under different culture conditions: serum-free medium (dark blue), serum-free medium+SERF2 (5 μg/ml; lime) serum-free medium+SERF2+H2O2 (green) and serum-free medium+H2O2 (red). After 9.5 hours culture supernatants were analyzed by an ELISA-technique for caspase-3 expression levels. Results are expressed as pNA in pmol/μl.
# (§2) Caspase-3 is a member of the cysteine aspartic acid-specific protease family and is a marker of an early event in apoptosis. Caspase-3 expression was measured using a commercially available kit. Briefly, culture supernatants of cells undergoing apoptosis after different treatments were harvested and incubated with a substrate labeled with p-nitroaniline (pNA), which produces a yellow color when it is cleaved by caspase-3. The amount of produced yellow color is proportional to the caspase-3 activity, which can be determined by an ELISA reader at 405 nm (Promega). The assay was performed essentially as described by the manufacturer (instruction manual of CaspACE™ Assay System, Promega).
# (§3) The question was asked whether SERF2 has an effect on growth factor deprivation- or stress-induced apoptosis. The experimental protocol included addition of Hydrogen peroxide (H2O2), which is known to cause cellular stress and consequently apoptotic death in doses below 200 μM (Cox A., Carcinogenesis. 2007, Vol. 28, 10). […]
# TF-1 cells = assay: Growth factor deprivation apoptosis, caspase-3 ELISA, TF-1; type: cell-based, human; conditions: serum-free medium with or without GM-CSF, SERF2 5 μg/ml, 9.5 hours
# Method: TF-1 cells were incubated under different culture conditions: FCS+GM-CSF (dark blue), serum-free medium+GM-CSF (5 μg/ml; pale blue), serum-free medium+GM-CSF+SERF2 (5 μg/ml; lime), serum-free medium+SERF2 (green) and serum-free medium only (red). After 9.5 hours culture supernatants were analyzed by an ELISA-technique for caspase-3 expression levels. Results are expressed as pNA in pmol/μl
# as §2, §3
# zebrafish [3] = assay: Zebrafish TUNEL in situ staining of apoptotic cells; type: in vivo; conditions: gill, skeletal muscle and tail sections, versus untreated animals
# Method: FIG. 18: Apoptotic cells detected by TUNEL technology in gill, skeletal muscle and tail sections.
# as §1
# Apoptotic. cells were detected by TUNEL technology using in situ Cell Death Detection Kit, Fluorescein (Roche Applied Science, Mannheim, Germany) according to the manufacturer's instructions. Statistical Analysis. The acquired data statistically analyzed by using a two tailed students t-Test (Microsoft Excel) and significance was accepted when P<0.05. Data are presented as mean±S.E.M.
substance,measurement,setting,value
"SERF2: Small EDRK-rich factor 2, mature protein of 59 amino acids (SEQ ID NO: 1) (MTRGNQRELARQKNMKKQSDSVKGKRRDDGLSAAARKQRDSEIMQQKQKKANEKKEEPK; homo sapiens)",blood cell concentrations by treatment group,"zebrafish [1]; 7 dpf, incubation and injection routes",all but one treatment group show significantly increased blood cell concentrations
same,increase in blood cell concentration compared to controls,"zebrafish [1]; zebrafish, different doses of SERF2",50 to 100%
same,angiogenic response (newly formed vessels) in CAM,[2],pro-angiogenic response; also recorded: New vessels were identified
same,apoptosis (caspase-3 levels) in 711-3 cells,711-3 cells,markedly reduced apoptosis; also recorded: alleviates apoptosis
same,apoptosis (caspase-3 levels) in TF-1 cells,TF-1 cells,markedly reduced apoptosis; also recorded: compensates for FCS and alleviates apoptosis
same,number of apoptotic cells (TUNEL),zebrafish [3],reduced number of apoptotic cells; also recorded: lower in different regions as compared to untreated animals
